Patent US10577382B2, “Fused heterocyclic compound” (TAKEDA PHARMACEUTICAL COMPANY LIMITED, priority 2016, dated 2020)

Columns and labels:
[1] = test system: p53 protein; experiment: p53 induction activity in HCT116 cells (western blot); type: cell-based, human; details: 300 nM, 16 hours, relative to control group
Method: (§1) 1000 μl (8,0000 cells/well) of a cell suspension of human colon adenocarcinoma cells HCT116 (purchased from ATCC) was seeded in a 12-well plate, and cultured at 37° C. for 2 days in a 5% CO2 gas incubator. The test compound solution was added to a final concentration of 300 nM, and the mixture was cultured for 16 hours. The plate was washed with PBS, a protein extract (10% glycerol, 1% sodium dodecyl sulfate, 62.5 mM Tris-HCl (pH: 7.5)) was then added to dissolve the cells, and the solution was treated at 95° C. for 5 minutes. Thereafter, the amount of protein was determined using BCA Protein Assay Kit (Thermo Fisher Scientific).
(§2) The amount of the protein in each sample was adjusted, SDS-PAGE was then performed, and the protein was transferred to a PVDF membrane using an iBlot (registered trademark) gel transfer system (Invitrogen). […] The membrane was washed in the same procedure as described above, a phosphorylated CLK2 protein, a MDM4 protein, a p53 protein and a p21 protein each labeled with an antibody were then made chemiluminescent using ImmunoStar ZETA (Wako Pure Chemical Industries, Ltd.), and luminescence was detected with LAS-3000 Image Analyzer (Fujifilm Corporation). The luminescence intensity was determined using Multi Gauge Ver. 3.1 (Fujifilm Corporation), and quantified. […]

[2] = test system: MDM4 protein; experiment: MDM4 protein amount in HCT116 cells (western blot); type: cell-based, human; details: 300 nM, 16 hours, relative to control group
Method: as §1, §2

[3] = test system: tumor derived from a myelogenous leukemia patient having a mutation in the SF3B1 gene; experiment: Antitumor action on tumor-bearing model derived from patient with acute myeloid leukemia having SF3B1 gene mutation; type: in vivo; details: 50 mg/kg orally twice a day on 2 days per week for 2 weeks; NOG female mice; tumor volume
Method: A tumor derived from a myelogenous leukemia patient having a mutation in the SF3B1 gene was subcutaneously transplanted into mice to establish a clinical tumor model capable of undergoing in vivo passage. A fragment of the tumor was subcutaneously transplanted into a six-week-old NOG female mice (CLEA Japan, Inc.) with a trocar, the tumor diameter of the developed tumor was measured 52 days after the transplantation, and the tumor volume was calculated in accordance with the following expression. Tumor volume=long diameter×short diameter×short diameter×(½)
Individuals with a tumor developed to a tumor volume of about 200 mm^3 were selected, and six mice per group were used for the experiment. A 0.5% methylcellulose solution (Wako Pure Chemical Industries, Ltd.) suspension of the test compound was orally administered at a dose of 50 mg/kg (10 mL/kg) twice a day on 2 days per week for 2 weeks. The tumor volume was chronologically measured on the day before the start of administration and every 3 to 4 days, the tumor diameter was finally measured on the day after completion of administration for 14 days, and the tumor volume was calculated.
The tumor growth in the test compound administration group with respect to the control administration group was calculated as a T/C value in accordance with the following expression. […]

[4] = test system: MDM4 transcription product (MDM4 FL / MDM4 S); experiment: In vitro MDM4 alternative splicing ratio in HCT116 cells (quantitative PCR); type: cell-based, human; details: 300 nM, 6 hours, PSI = MDM4 FL/(MDM4 FL + MDM4 S) x 100, Control (DMSO) 75.75
Method: 1000 μl (20,0000 cells/well) of a cell suspension of human colon adenocarcinoma cells HCT116 (purchased from ATCC) was seeded in a 12-well plate, and cultured at 37° C. for 1 day in a 5% CO2 gas incubator. The test compound solution was added to a final concentration of 300 nM, and the mixture was cultured for 6 hours. The plate was washed with PBS, the cells were then dissolved using RNeasy Mini Kit (QIAGEN), and RNA was extracted. Using cDNA after reverse transcription reaction, the number of copies of the MDM4 transcription product containing exon 6 (MDM4 FL) and the MDM4 transcription product in which exon 6 was skipped (MDM4 S) was measured by quantitative PCR. Primers with the following sequences were used for the measurement.
Primers with the following sequences were used for the measurement.
The following oligos were used for preparing a calibration curve.
A change in MDM4 alternative splicing ratio (PSI) is calculated in accordance with the following expression, and changes caused by the test compound are shown in Table 8. PSI=(number of copies of MDM4 FL÷(number of copies of MDM4 FL+number of copies of MDM4 S))×100

COc1ncnn2ccc(-c3cnc4nc(C)n(Cc5nnc([C@@H](C)F)o5)c4c3)c12 [Example 286, 1-((5-((1R)-1-fluoroethyl)-1,3,4-oxadiazol-2-yl)methyl)-6-(4-methoxypyrrolo[2,1-f][1,2,4]triazin-5-yl)-2-methyl-1H-imidazo[4,5-b]pyridine]
Increase ratio (p53) [1]: 620.7% | Residual ratio (MDM4) [2]: 43.6% | T/C (%) [3]: −30.4% | PSI (MDM4 alternative splicing ratio) [4]: 45.81
